# ChEMBL document CHEMBL1201862, “PubChem BioAssay data set” (2004)
#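 Grown in 96-well plates, cells were treated for 48 hours with each compound at five concentrations. Insufficient inhibition: endpoint recorded as highest concentration tested. GI50 is the concentration that inhibits growth by half.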 Calls of active or inactive are those of the source. Rule as the data show it: active = GI50 up to about 1.1 µM and inactive = higher.
# Key:
# Experiment in all cases: growth of human tumour cells (NCI), 48 h
# 786-0 = tested on: 786-0
# A498 = tested on: A498
# A549 = tested on: A549
# ACHN = tested on: ACHN
# CCRF-CEM = tested on: CCRF-CEM
# COLO 205 = tested on: COLO 205
# DLD-1 = tested on: DLD-1
# DMS-114 = tested on: DMS-114
# DMS-273 = tested on: DMS-273
# EKVX = tested on: EKVX
# HCC 2998 = tested on: HCC 2998
# HCT-116 = tested on: HCT-116
# HCT-15 = tested on: HCT-15
# HL-60 = tested on: HL-60
# HOP-18 = tested on: HOP-18
# HOP-62 = tested on: HOP-62
# HOP-92 = tested on: HOP-92
# HT-29 = tested on: HT-29
# IGROV-1 = tested on: IGROV-1
# K562 = tested on: K562
# KM-20L2 = tested on: KM-20L2
# LXFL 529 = tested on: LXFL 529
# M14 = tested on: M14
# M19-MEL = tested on: M19-MEL
# MOLT-4 = tested on: MOLT-4
# Malme-3M = tested on: Malme-3M
# NCI-H226 = tested on: NCI-H226
# NCI-H23 = tested on: NCI-H23
# NCI-H522 = tested on: NCI-H522
# OVCAR-4 = tested on: OVCAR-4
# OVCAR-8 = tested on: OVCAR-8
# RPMI-8226 = tested on: RPMI-8226
# RXF 393 = tested on: RXF 393
# SF-268 = tested on: SF-268
# SF-295 = tested on: SF-295
# SF-539 = tested on: SF-539
# SK-MEL-28 = tested on: SK-MEL-28
# SK-MEL-5 = tested on: SK-MEL-5
# SK-OV-3 = tested on: SK-OV-3
# SN12C = tested on: SN12C
# SNB-19 = tested on: SNB-19
# SNB-75 = tested on: SNB-75
# SNB-78 = tested on: SNB-78
# SR = tested on: SR
# SW-620 = tested on: SW-620
# U-251 = tested on: U-251
# UACC-257 = tested on: UACC-257
# UACC-62 = tested on: UACC-62
# UO-31 = tested on: UO-31
# XF498 = tested on: XF498
# CAKI-1 = tested on: CAKI-1
# LOX IMVI = tested on: LOX IMVI
# NCI-H460 = tested on: NCI-H460
# OVCAR-3 = tested on: OVCAR-3
# TK-10 = tested on: TK-10
structure (smiles),measurement,setting,value
O=C1c2ccccc2N2OC3(N4CCCC4)CCCCC3C12c1ccccc1 (stereo not given),GI50,786-0,17.7 µM (inactive)
same,GI50,A498,> 100 µM (inactive)
same,GI50,A549,21 µM (inactive)
same,GI50,ACHN,18.5 µM (inactive)
same,GI50,CCRF-CEM,18.7 µM (inactive)
same,GI50,COLO 205,17.3 µM (inactive)
same,GI50,DLD-1,20 µM (inactive)
same,GI50,DMS-114,15.2 µM (inactive)
same,GI50,DMS-273,17 µM (inactive)
same,GI50,EKVX,69.8 µM (inactive)
same,GI50,HCC 2998,53 µM (inactive)
same,GI50,HCT-116,14.4 µM (inactive)
same,GI50,HCT-15,26.4 µM
same,GI50,HL-60,19.1 µM (inactive)
same,GI50,HOP-18,> 100 µM (inactive)
same,GI50,HOP-62,> 100 µM (inactive)
same,GI50,HOP-92,16.1 µM (inactive)
same,GI50,HT-29,21.8 µM (inactive)
same,GI50,IGROV-1,42 µM (inactive)
same,GI50,K562,19.5 µM (inactive)
same,GI50,KM-20L2,43.5 µM (inactive)
same,GI50,LXFL 529,14.5 µM (inactive)
same,GI50,M14,17.6 µM (inactive)
same,GI50,M19-MEL,10.1 µM (inactive)
same,GI50,MOLT-4,35.7 µM (inactive)
same,GI50,Malme-3M,18.8 µM (inactive)
same,GI50,NCI-H226,37.3 µM (inactive)
same,GI50,NCI-H23,20.1 µM (inactive)
same,GI50,NCI-H522,14.9 µM (inactive)
same,GI50,OVCAR-4,14.5 µM (inactive)
same,GI50,OVCAR-8,17.5 µM (inactive)
same,GI50,RPMI-8226,> 100 µM (inactive)
same,GI50,RXF 393,17.5 µM (inactive)
same,GI50,SF-268,16.6 µM (inactive)
same,GI50,SF-295,18.3 µM (inactive)
same,GI50,SF-539,31.4 µM (inactive)
same,GI50,SK-MEL-28,25.4 µM (inactive)
same,GI50,SK-MEL-5,15.1 µM (inactive)
same,GI50,SK-OV-3,> 100 µM (inactive)
same,GI50,SN12C,16.9 µM (inactive)
same,GI50,SNB-19,> 100 µM (inactive)
same,GI50,SNB-75,34.1 µM (inactive)
same,GI50,SNB-78,16.6 µM (inactive)
same,GI50,SR,33.8 µM (inactive)
same,GI50,SW-620,17.7 µM (inactive)
same,GI50,U-251,28.1 µM (inactive)
same,GI50,UACC-257,19.3 µM (inactive)
same,GI50,UACC-62,16.4 µM (inactive)
same,GI50,UO-31,39.7 µM (inactive)
same,GI50,XF498,22.4 µM (inactive)
COc1ccc(/C=C2\CCCCC2=O)cc1,GI50,786-0,> 100 µM (inactive)
same,GI50,A498,> 100 µM (inactive)
same,GI50,A549,> 100 µM (inactive)
same,GI50,ACHN,> 100 µM (inactive)
same,GI50,CAKI-1,92.5 µM (inactive)
same,GI50,CCRF-CEM,> 100 µM (inactive)
same,GI50,COLO 205,> 100 µM (inactive)
same,GI50,DLD-1,> 100 µM (inactive)
same,GI50,DMS-114,> 100 µM (inactive)
same,GI50,DMS-273,> 100 µM (inactive)
same,GI50,EKVX,> 100 µM (inactive)
same,GI50,HCT-116,> 100 µM (inactive)
same,GI50,HCT-15,> 100 µM
same,GI50,HL-60,> 100 µM (inactive)
same,GI50,HOP-18,> 100 µM (inactive)
same,GI50,HOP-62,> 100 µM (inactive)
same,GI50,HT-29,> 100 µM (inactive)
same,GI50,IGROV-1,> 100 µM (inactive)
same,GI50,K562,> 100 µM (inactive)
same,GI50,KM-20L2,> 100 µM (inactive)
same,GI50,LOX IMVI,> 100 µM (inactive)
same,GI50,LXFL 529,> 100 µM (inactive)
same,GI50,M14,> 100 µM (inactive)
same,GI50,M19-MEL,> 100 µM (inactive)
same,GI50,MOLT-4,> 100 µM (inactive)
same,GI50,NCI-H23,> 100 µM (inactive)
same,GI50,NCI-H460,> 100 µM (inactive)
same,GI50,OVCAR-3,> 100 µM (inactive)
same,GI50,OVCAR-4,> 100 µM (inactive)
same,GI50,OVCAR-8,> 100 µM (inactive)
same,GI50,SF-268,> 100 µM (inactive)
same,GI50,SF-295,> 100 µM (inactive)
same,GI50,SF-539,> 100 µM (inactive)
same,GI50,SK-MEL-28,> 100 µM (inactive)
same,GI50,SK-MEL-5,> 100 µM (inactive)
same,GI50,SK-OV-3,> 100 µM (inactive)
same,GI50,SN12C,> 100 µM (inactive)
same,GI50,SNB-75,41.8 µM (inactive)
same,GI50,SNB-78,> 100 µM (inactive)
same,GI50,SW-620,> 100 µM (inactive)
same,GI50,TK-10,> 100 µM (inactive)
same,GI50,U-251,> 100 µM (inactive)
same,GI50,UACC-62,> 100 µM (inactive)
same,GI50,UO-31,> 100 µM (inactive)
same,GI50,XF498,> 100 µM (inactive)
